Where a name gives a salt, the structure may show the parent alone. Bounds are passed on as bounds.

This assay relates to microvessel formation in rat aortic rings. Description: rat aortic ring model of angiogenesis (inhibition of microvessel formation). It counts as cell-based. The note with it: microvessel area after eight days in culture vs vehicle-treated control rings. As for the experimental part: Angiogenesis inhibitory activity was measured in vitro using the rat aortic ring model of angiogenesis as described by Nicosia, R. F. and Ottinetti in “Laboratory Investigation”, vol. 63, p. 115, 1990. The ability of compounds to inhibit microvessel formation was compared to vehicle-treated control rings. Quantitation (microvessel area) following eight days in culture was performed using an image analysis system, consisting of a light microscope, a CCD camera and an automated, custom-designed image analysis program as described by Nissanov, J., Tuman, R. W., Gruver, L. M., and Fortunato, J. M. in “Laboratory Investigation”, vol 73 (#5), p. 734, 1995. Compounds were tested at several concentrations for determination of inhibitory potency (IC50's).

`Cc1nsc(-c2ccc(NCCCCOc3ccc(F)cc3)nn2)n1` [Compound 21] yielded a half-maximal inhibitory concentration (IC50) of 48.4 nM.
Regarding `Cc1nsc(-c2ccc(NCCCCOc3ccc(Br)cc3)nn2)n1` [Compound 14], the 50% inhibitory concentration (IC50) came to 31.2 nM.
The same measure, in the same setting: with `Cc1nsc(-c2ccc(NCCCCCOc3cccc(C(F)(F)F)c3)nn2)n1` [Compound 27] the figure was 0.622 nM; with `Cc1nsc(-c2ccc(NCCCCOc3ccc(Cl)c(Cl)c3)nn2)n1` [Compound 17], 12.8 nM; with `Cc1nsc(-c2ccc(N(C)CCCCOc3ccccc3C(F)(F)F)nn2)n1` [Compound 49], 0.312 nM.
Take `Cc1nsc(-c2ccc(NCCCCCCNc3ccccc3)nn2)n1` [Compound 5]: the IC50 was 16.4 nM.
The same measure, in the same setting: next, `Cc1nsc(-c2ccc(NCCCCSc3ccc(F)cc3)nn2)n1` [Compound 71]: less than 0.1 nM.
`CN(CCCCOc1cccc(C(F)(F)F)c1)c1ccc(-c2nc(CO)ns2)nn1` [Compound 102] showed an IC50 of 2.08 nM.
Still for that read-out and setting: with `Cc1nsc(-c2ccc(N(C)CCCCOc3ccccc3F)nn2)n1` [Compound 41] the figure was 2.56 nM; with `Cc1nsc(-c2ccc(N(C)CCN(Cc3ccccc3)c3cccc(C(F)(F)F)c3)nn2)n1` [Compound 110], 6.98 nM.
On the same count and under the same terms, next, `Cc1nsc(-c2ccc(N(C)CCCNc3cccc(C(F)(F)F)c3)nn2)n1` [Compound 104]: 20.3 nM.
Still for that read-out and setting: with `COc1ccc(OCCCCN(C)c2ccc(-c3nc(C)ns3)nn2)c(Cl)c1` [Compound 40] the figure was 11.5 nM.
The compound `Cc1nsc(-c2ccc(N(C)CCCCOc3ccc(Br)cc3)nn2)n1` [Compound 36] came in with an IC50 of 5.3 nM.
The same measure, in the same setting: with `Cc1nsc(-c2ccc(NCCN(C)c3cccc(C(F)(F)F)c3)nn2)n1` [Compound 105] the figure was 1.49 nM; with `Cc1nsc(-c2ccc(N(C)CCNc3cccc(C(F)(F)F)c3)nn2)n1` [Compound 112], 13.3 nM; with `Cc1nsc(-c2ccc(N(C)CCCCOc3cc(C(F)(F)F)ccc3F)nn2)n1` [Compound 47], 12.5 nM.
Same read-out and setting: next, `Cc1nsc(-c2ccc(NCCNc3cccc(C(F)(F)F)c3)nn2)n1` [Compound 6]: 0.428 nM; `Cc1nsc(-c2ccc(NCCCCOc3cccc(C(F)(F)F)c3)nn2)n1` [Compound 26]: 3.97 nM.
The same measure, in the same setting: next, `Cc1nsc(-c2ccc(N(C)CCCCOc3ccccc3)nn2)n1` [Compound 35]: 29.4 nM; `Cc1nsc(-c2ccc(N(C)CCCCOc3ccc(F)cc3)nn2)n1` [Compound 43]: 2.78 nM.
The compound `Cc1nsc(-c2ccc(NCCCNc3cccc(C(F)(F)F)c3)nn2)n1` [Compound 7] yielded a half-maximal inhibitory concentration (IC50) of 45.4 nM.
Same read-out and setting: next, `Cc1nsc(-c2ccc(NCCCCNc3cccc(C(F)(F)F)c3)nn2)n1` [Compound 108]: 37.9 nM; `Cc1nsc(-c2ccc(N(C)CCCCOc3ccc([N+](=O)[O-])c(C(F)(F)F)c3)nn2)n1` [Compound 54]: 13.7 nM.
As for `Cc1nsc(-c2ccc(NCCCCOc3cccc(F)c3)nn2)n1` [Compound 20], the half-maximal inhibitory concentration (IC50) was 8.15 nM.
The compound `Cc1nsc(-c2ccc(N(C)CCCCN(C)c3cccc(C(F)(F)F)c3)nn2)n1` [Compound 111] gave a 50% inhibitory concentration (IC50) of 1.87 nM.
Same read-out and setting: next, `Cc1nsc(-c2ccc(N(C)CCCCOc3ccccc3Cl)nn2)n1` [Compound 37]: 1.32 nM; `Cc1nsc(-c2ccc(NCCCOc3cccc(C(F)(F)F)c3)nn2)n1` [Compound 25]: 40.4 nM; `Cc1nsc(-c2ccc(N(C)CCNc3ccccc3)nn2)n1` [Compound 9]: 17.9 nM.
The same measure, in the same setting: next, `CN(C)c1nsc(-c2ccc(NCCCCCCNc3cccc(C(F)(F)F)c3)nn2)n1` [Compound 97]: 1.6 nM.
Same read-out and setting: next, `Cc1nsc(-c2ccc(N(C)CCCCOc3cc(C(F)(F)F)cc(C(F)(F)F)c3)nn2)n1` [Compound 53]: 7.33 nM; `Cc1nsc(-c2ccc(NCCCCCc3cccc(C(F)(F)F)c3)nn2)n1` [Compound 77]: 5.81 nM; `Cc1nsc(-c2ccc(NCCCCNc3ccccc3)nn2)n1` [Compound 3]: 45.7 nM.
In the case of `Cc1ccc(C(C)C)c(OCCCCN(C)c2ccc(-c3nc(C)ns3)nn2)c1` [Compound 62], 5.53 nM corresponded to half-maximal inhibition (IC50).
Same read-out and setting: with `Cc1nsc(-c2ccc(N(C)CCCCOc3ccc(F)c(F)c3)nn2)n1` [Compound 45] the figure was 2 nM.
On the same count and under the same terms, with `Cc1nsc(-c2ccc(N(C)CCCCOc3cccc([N+](=O)[O-])c3)nn2)n1` [Compound 57] the figure was 51.1 nM.
In the case of `Cc1nsc(-c2ccc(N(C)CCCCOc3cccc(F)c3)nn2)n1` [Compound 42], the IC50 turned out to be 42.2 nM.
`Cc1nsc(-c2ccc(NCCCCSc3cccc(C(F)(F)F)c3)nn2)n1` [Compound 73] registered a 50% inhibitory concentration (IC50) of 2.86 nM.
`Cc1nsc(-c2ccc(N(C)CCCCSc3cccc(C(F)(F)F)c3)nn2)n1` [Compound 74] came in with an IC50 of 1 nM.
Take `Cc1ccc(C(C)C)c(OCCCCNc2ccc(-c3nc(C)ns3)nn2)c1` [Compound 29]: the IC50 is 24.8 nM.
On the same count and under the same terms, with `Cc1nsc(-c2ccc(NCCCCOc3ccccc3Cl)nn2)n1` [Compound 15] the figure was 1.34 nM.
On the same count and under the same terms, next, `CN(C)c1nsc(-c2ccc(NCCCCOc3cccc(C(F)(F)F)c3)nn2)n1` [Compound 67]: 32.4 nM; `CN(C)c1nsc(-c2ccc(N(C)CCOc3cccc(C(F)(F)F)c3)nn2)n1` [Compound 100]: 7.01 nM; `Cc1nsc(-c2ccc(NCCCCCCOc3cccc(C(F)(F)F)c3)nn2)n1` [Compound 28]: 1.76 nM.
For `Cc1cccc(OCCCCN(C)c2ccc(-c3nc(C)ns3)nn2)c1` [Compound 61], the midpoint of inhibition, the IC50, lay at 35.1 nM.
On the same count and under the same terms, next, `Cc1nsc(-c2ccc(NCCCCCNc3ccccc3)nn2)n1` [Compound 4]: 21.2 nM.
The compound `Cc1nsc(-c2ccc(N(C)CCCOc3cccc(C(F)(F)F)c3)nn2)n1` [Compound 51] registered an IC50 of 9.38 nM.
With `Cc1nsc(-c2ccc(N(C)CCCCOc3ccc(F)cc3F)nn2)n1` [Compound 44], the IC50 stood at 15.2 nM.
The same measure, in the same setting: with `Cc1nsc(-c2ccc(NCCCCOc3ccc(Cl)cc3)nn2)n1` [Compound 16] the figure was 15.8 nM.
As to `Cc1nsc(-c2ccc(N(C)CCCCCc3cccc(C(F)(F)F)c3)nn2)n1` [Compound 78], the IC50 worked out at 0.28 nM.
Still for that read-out and setting: next, `Cc1nsc(-c2ccc(NCCCCCCNc3cccc(C(F)(F)F)c3)nn2)n1` [Compound 8]: 8.53 nM.
For the compound `Cc1nsc(-c2ccc(SCCCCOc3cccc(C(F)(F)F)c3)nn2)n1` [Compound 94, 3-(3-methyl-1,2,4-thiadiazol-5-yl)-6-[[4-[3-(trifluoromethyl)phenoxy]butyl]thio]pyridazine], inhibition (192 h) was half-maximal at 4.71 nM (IC50).
`Cc1nsc(-c2ccc(N(C)CCCCOc3cccc(C(F)(F)F)c3F)nn2)n1` [Compound 46] came in with a 50% inhibitory concentration (IC50) of 1.46 nM.
Take `Cc1nsc(-c2ccc(N(C)CCCCOc3ccc(Cl)cc3)nn2)n1` [Compound 38]: half-maximal inhibition (IC50) required 37.2 nM.
Still for that read-out and setting: with `Cc1nsc(-c2ccc(NCCCCOc3ccc(F)cc3F)nn2)n1` [Compound 22] the figure was 72.6 nM; with `CCN(CCCCOc1cccc(C(F)(F)F)c1)c1ccc(-c2nc(C)ns2)nn1` [Compound 63], 9.2 nM.
On the same count and under the same terms, next, `Cc1nsc(-c2ccc(NCCOc3cccc(C(F)(F)F)c3)nn2)n1` [Compound 24]: 1.33 nM; `Cc1nsc(-c2ccc(N(C)CCCCCc3ccc(F)cc3)nn2)n1` [Compound 76]: 1.15 nM.
`Cc1nsc(-c2ccc(N(C)CCCCC(=O)c3cccc(C(F)(F)F)c3)nn2)n1` [Compound 70] gave a concentration for half-maximal inhibition (IC50) of 12.2 nM.
In the case of `COc1cccc(OCCCCNc2ccc(-c3nc(C)ns3)nn2)c1` [Compound 30], 6.31 nM corresponded to half-maximal inhibition (IC50).
`Cc1nsc(-c2ccc(N(C)CCN(C)c3ccccc3)nn2)n1` [Compound 10]: half-maximal inhibition (IC50) required 15.6 nM.
In turn, `Cc1nsc(-c2ccc(N(C)CCCCSc3ccc(F)cc3)nn2)n1` [Compound 72] returned a half-maximal inhibitory concentration (IC50) of 0.388 nM.
`FC(F)(F)c1cccc(OCCCCNc2ccc(-c3ncns3)nn2)c1` [Compound 11] showed a concentration for half-maximal inhibition (IC50) of 90.8 nM.
Same read-out and setting: next, `Cc1nsc(-c2ccc(N(C)CCCCOc3cc(F)cc(C(F)(F)F)c3)nn2)n1` [Compound 48]: 1.85 nM.
`Cc1nsc(-c2ccc(N(C)CCCCOc3cccc(C(F)(F)F)c3)nn2)n1` [Compound 52, N-methyl-6-(3-methyl-1,2,4-thiadiazol-5-yl)-N-[4-[3-(trifluoromethyl)phenoxy]butyl]-3-pyridazinamine] returned a concentration for half-maximal inhibition (IC50) (192 h) of 5.56 nM.
Take `Cc1nsc(-c2ccc(N(C)CCCCOc3ccc(Cl)c(Cl)c3)nn2)n1` [Compound 39]: the midpoint of inhibition, the IC50, lay at 17.1 nM.
`Cc1nsc(-c2ccc(N(C)CCCCOc3ccc(C(F)(F)F)cc3)nn2)n1` [Compound 55, N-methyl-6-(3-methyl-1,2,4-thiadiazol-5-yl)-N-[4-[4-(tri-fluoromethyl)phenoxy]butyl]-3-pyridazinamine monohydrochloride] returned an IC50 (192 h) of 3.62 nM.
Take `Cc1nsc(-c2ccc(N(C)CCCCOc3ccc(Br)cc3[N+](=O)[O-])nn2)n1` [Compound 56]: the concentration for half-maximal inhibition (IC50) stood at 80.7 nM.
`Cc1nsc(-c2ccc(N(C)CCOc3cccc(C(F)(F)F)c3)nn2)n1` [Compound 50] returned an IC50 of 0.83 nM.
On the same count and under the same terms, next, `FC(F)(F)c1cccc(OCCNc2ccc(-c3ncns3)nn2)c1` [Compound 98]: 3.07 nM.

Broadly, the IC50 is the concentration needed to halve the response being measured. A lower IC50 goes with greater potency.

These data come from US6602873B2, “Angiogenesis inhibiting thiadiazolyl pyridazine derivatives” (Janssen Pharamaceutica, N.V., priority 1997, dated 2003).
